The source of these data is patent US7317034B2, “Substituted C-furan-2-yl-methylamine and C-thiophen-2-yl-methylamine compounds” (Gruenenthal GmbH, priority 2001, dated 2008).

The subject of the assay is binding site 2 of the sodium channel (BTX binding site). The experiment in a line: Binding to the sodium channel, binding site 2 (BTX binding), [3H]-batrachotoxinin A20 α-benzoate displacement. As to conditions: rat cerebrocortex synaptosomes; for BTX binding (10 μM): 10 μM test compound, ligand [3H]-batrachotoxinin A20 α-benzoate 10 nM, 120 min at 25° C.

For “5-[1-(2-Chloro-phenylamino)-2-oxo-2-phenyl-ethyl]-2-methyl-furan-3-carboxylic acid ethyl ester”, the “BTX binding (10 μM)” value was 40%.

For `COC(=O)c1cc(C(Nc2ccc(Cl)cc2C)C(=O)c2ccccc2)oc1C` (centres unmarked) [Example B, 5-[1-(4-Chloro-2-methyl-phenylamino)-2-oxo-2-phenyl-ethyl]-2-methyl-furan-3-carboxylic acid methyl ester], the “BTX binding (10 μM)” value is 55%.

“[3H]-batrachotoxinin A20 α-benzoate [reference compound]”: the Kd (radioligand [3H]-batrachotoxinin A20 α-benzoate, N=2, mean±SEM, read-out: KD value for that binding site) was determined as 0.0246 ± 0.00156 µM.

With `COC(=O)c1cc(C(Nc2ccc(Cl)cc2F)C(=O)c2ccccc2)oc1C` (centres unmarked) [C, 5-[1-(4-Chloro-2-fluoro-phenylamino)-2-oxo-2-phenyl-ethyl]-2-methyl-furan-3-carboxylic acid methyl ester], the “BTX binding (10 μM)” value came out at 57%.

With `CCOC(=O)c1cc(C(Nc2ccc(Cl)cc2C)C(=O)c2ccccc2)oc1C` (centres unmarked) [D, 5-[1-(4-Chloro-2-methyl-phenylamino)-2-oxo-2-phenyl-ethyl]-2-methyl-furan-3-carboxylic acid ethyl ester], the “BTX binding (10 μM)” value was 37%.

Broadly, the Kd is the free concentration of one partner at which half of the binding sites on the other are occupied at equilibrium, for simple one-to-one binding.
